Data from article PMC4441592 (Neuron, 2015).
Peptide text beside a SMILES is read from it.

Columns and labels:
[1] = biological target: KOR (Homo sapiens, UniProt P41145); test: cell-based
[2] = biological target: KORD (D138N hKOR) (Homo sapiens, UniProt P41145, D138N); test: cell-based; conditions: EC50(nM)
Chain of KORD (D138N hKOR) (P41145 whole entry D138N): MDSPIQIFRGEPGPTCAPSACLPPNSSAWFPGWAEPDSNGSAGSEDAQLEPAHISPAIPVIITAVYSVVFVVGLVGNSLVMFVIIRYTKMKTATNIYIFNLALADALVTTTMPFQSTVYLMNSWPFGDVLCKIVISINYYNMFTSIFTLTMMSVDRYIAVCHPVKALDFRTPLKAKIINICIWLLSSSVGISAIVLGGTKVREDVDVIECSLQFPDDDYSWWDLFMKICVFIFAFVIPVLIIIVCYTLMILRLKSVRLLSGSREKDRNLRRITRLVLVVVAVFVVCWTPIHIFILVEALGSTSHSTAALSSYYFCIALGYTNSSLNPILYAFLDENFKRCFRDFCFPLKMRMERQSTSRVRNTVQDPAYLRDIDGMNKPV

Chain of KOR (P41145 whole entry): as the sequence (P41145 whole entry D138N) above, with N138D counted along it

Row | SMILES | Emax [1] [%] | EC50 ([1]; EC50(nM)) [nM] | EC50 ([1]; pEC50 ± SEM) [nM] | EC50 [2] [nM]
1 | CSCC[C@H](NC(=O)[C@H](Cc1ccccc1)NC(=O)CNC(=O)CNC(=O)[C@@H](N)Cc1ccc(O)cc1)C(=O)N[C@@H](CCCNC(=N)N)C(=O)N[C@@H](CCCNC(=N)N)C(=O)N[C@H](C(=O)NCC(=O)N[C@@H](CCCNC(=N)N)C(=O)N1CCC[C@H]1C(=O)N[C@@H](CCC(=O)O)C(=O)O)C(C)C [BAM 12] (H-YGGFMRRVGRPE-OH) | 99 | 101 | 102 | > 10000
2 | CSCC[C@H](NC(=O)[C@H](Cc1ccccc1)NC(=O)CNC(=O)CNC(=O)[C@@H](N)Cc1ccc(O)cc1)C(=O)N[C@@H](CCCNC(=N)N)C(=O)N[C@@H](CCCNC(=N)N)C(=O)N[C@H](C(=O)NCC(=O)N[C@@H](CCCNC(=N)N)C(=O)N1CCC[C@H]1C(=O)N[C@@H](CCC(=O)O)C(=O)N[C@@H](Cc1c[nH]c2ccccc12)C(=O)N[C@@H](Cc1c[nH]c2ccccc12)C(=O)N[C@@H](CCSC)C(=O)N[C@@H](CC(=O)O)C(=O)N[C@@H](Cc1ccc(O)cc1)C(=O)N[C@@H](CCC(N)=O)C(=O)O)C(C)C [BAM 18] (H-YGGFMRRVGRPEWWMDYQ-OH) | 97 | 85 | 85.1 | > 10000
3 | CSCC[C@H](NC(=O)[C@H](Cc1ccccc1)NC(=O)CNC(=O)CNC(=O)[C@@H](N)Cc1ccc(O)cc1)C(=O)N[C@@H](CCCNC(=N)N)C(=O)N[C@@H](CCCNC(=N)N)C(=O)N[C@H](C(=O)NCC(=O)N[C@@H](CCCNC(=N)N)C(=O)N1CCC[C@H]1C(=O)N[C@@H](CCC(=O)O)C(=O)N[C@@H](Cc1c[nH]c2ccccc12)C(=O)N[C@@H](Cc1c[nH]c2ccccc12)C(=O)N[C@@H](CCSC)C(=O)N[C@@H](CC(=O)O)C(=O)N[C@@H](Cc1ccc(O)cc1)C(=O)N[C@@H](CCC(N)=O)C(=O)N[C@@H](CCCNC(=N)N)C(=O)N[C@@H](Cc1ccc(O)cc1)C(=O)NCC(=O)O)C(C)C [BAM 22] (H-YGGFMRRVGRPEWWMDYQRYG-OH) | 95 | 93 | 93.3 | > 10000
4 | CC(C)C[C@H](NC(=O)[C@H](Cc1ccccc1)NC(=O)CNC(=O)CNC(=O)[C@@H](N)Cc1ccc(O)cc1)C(=O)N[C@@H](CCCNC(=N)N)C(=O)O [Dynorphin A(1-6)] (H-YGGFLR-OH) | 86 | – | – | –
5 | CC(C)C[C@H](NC(=O)[C@H](Cc1ccccc1)NC(=O)CNC(=O)CNC(=O)[C@@H](N)Cc1ccc(O)cc1)C(=O)N[C@@H](CCCNC(=N)N)C(=O)N[C@@H](CCCNC(=N)N)C(=O)O [Dynorphin A(1-7)] | 97 | – | – | –
6 | CC[C@H](C)[C@H](NC(=O)[C@H](CCCNC(=N)N)NC(=O)[C@H](CCCNC(=N)N)NC(=O)[C@H](CC(C)C)NC(=O)[C@H](Cc1ccccc1)NC(=O)CNC(=O)CNC(=O)[C@@H](N)Cc1ccc(O)cc1)C(=O)O [Dynorphin A(1-8)] | 94 | – | – | –
7 | CC[C@H](C)[C@H](NC(=O)[C@H](CCCNC(=N)N)NC(=O)[C@H](CCCNC(=N)N)NC(=O)[C@H](CC(C)C)NC(=O)[C@H](Cc1ccccc1)NC(=O)CNC(=O)CNC(=O)[C@@H](N)Cc1ccc(O)cc1)C(=O)N[C@@H](CCCNC(=N)N)C(=O)O [Dynorphin A(1-9)] (H-YGGFLRRIR-OH) | 93 | – | – | –
8 | CC(C)C[C@H](NC(=O)[C@H](Cc1ccccc1)NC(=O)CNC(=O)CNC(=O)[C@@H](N)Cc1ccc(O)cc1)C(=O)N[C@@H](CCCNC(=N)N)C(=O)N[C@@H](CCCNC(=N)N)C(=O)N[C@@H](CCC(N)=O)C(=O)N[C@@H](Cc1ccccc1)C(=O)N[C@@H](CCCCN)C(=O)N[C@H](C(=O)N[C@H](C(=O)N[C@H](C(=O)O)[C@@H](C)O)C(C)C)C(C)C [Dynorphin B(1-13)] | 100 | – | – | –
9 | CSCC[C@H](NC(=O)[C@H](Cc1ccccc1)NC(=O)CNC(=O)CNC(=O)[C@@H](N)Cc1ccc(O)cc1)C(=O)N[C@@H](CCCNC(=N)N)C(=O)N[C@@H](Cc1ccccc1)C(=O)O [Met-enkephalin-Arg-Phe] (H-YGGFMRF-OH) | 99 | – | – | –
10 | CSCC[C@H](NC(=O)[C@H](Cc1ccccc1)NC(=O)CNC(=O)CNC(=O)[C@@H](N)Cc1ccc(O)cc1)C(=O)O [Met-enkephalin] | 79 | – | – | –
